Like-named read-outs stand apart in the source and are kept apart here.
Columns and labels:
[1] = In vitro metabolite structure identification; assay type: in vitro ADME; conditions: rat liver microsomes, 45 min, LC/MS/MS
Method: The test compound was incubated with rat liver microsomes for 45 minutes, after which aliquots were analyzed by LC/MS/MS for the presence of metabolites. The test compound was incubated with pooled rat liver microsomes (BD Gentest Corp, Woburn, Mass.) in a mixture (final volume 500 μL) comprising the following: rat liver microsomes (7.5 μL of 20 mg microsomal protein to give final concentration of 0.3 mg microsome protein/mL), test compound (2.5 μL of 1 mM test compound in acetonitrile to give final concentration of […]) and phosphate buffer (440 μL of 0.1 M, pH 7.4, containing 1 mM EDTA). The mixture was preincubated for 5 min at 37° C. in a shaking water bath, after which-reaction was initiated by adding 50 μL of 10 mM NADPH (freshly prepared in phosphate buffer) to give a final concentration of 1 mM NADPH in the mixture. Aliquots of 50 μL were withdrawn immediately on addition of NADPH (time 0) and 45 min later. On removal of the sample, reaction was quenched by addition of chilled methanol (100 μL). The mixture was then centrifuged at 10,000 g to remove the protein and the supernatant was analyzed by LC-MS-MS.
Liquid chromatography was performed on an Agilent® 1200 series HPLC system interfaced with a QTRAP 3200 triple quadruple mass spectrometer (Applied Biosystems, Foster City, Calif.). […]

PC3 cells [2] = assay: Immunofluorescence analysis of LC3 aggregation; assay type: cell-based, human; conditions: PC3, 48 h
Method: Cover slips were placed into the base of each well in a 24-well plate. PC3 cells were seeded at 10 000 cells/mL per well in media (DMEM Hi-glucose, 10% FBS, 50 μg/mL penicillin, 50 μg/mL streptomycin) and incubated for 24 h. After this time, cells were attached as a layer onto the exposed face of the cover slip. The media was carefully removed from the well without disrupting the cell layer on the cover slip. Test compound in DMEM (high glucose, 5% FBS) was added and incubated for 24 h or 48 h. DMSO concentration was kept at 0.05% per well, including control wells. At the end of the incubation period, media was removed, wells were washed thrice with PBS, followed by addition of chilled PBST (200 μL) per well for 10 minutes to permeabilize the cells. Cells were then fixed with 4% paraformaldehyde (300 μL), incubated for 15 minutes, and washed with cold PBS (3 times) to remove the fixing solution. To the cell layer fixed on the cover slip in the well was added 100 μL of anti-LC3 in PBST (1:1000). The plates were kept at 4° C. overnight after which each well was washed 3× with cold PBS. Rhodamine Red-X® secondary antibody (Jackson Immunoresearch Laboratories, West Grove, Pa.) was added, incubated (2 h, 25° C.) and removed by washing with PBS (3 times). The cover slips were carefully removed from the wells and mounted onto glass slides and sealed with nail polish. […]

Balb/c mice = tested on: Balb/c mice
Method: Animals were given free access to water and standard feed. […] The test compound was administered intraperitoneally using a 23G gauge needle to the animal in a volume of vehicle that was tagged to the body weight, namely 0.2 mL for 20 g animal and so on. The vehicle was formulated from ethanol, PEG 400 (Sigma Aldrich) and 5% dextrose (Sigma Aldrich) in the ratio 1:6:3. The test compound was first dissolved in ethanol, PEG400 was added and the solution was vortexed, followed by 5% dextrose and further vortexing. The solutions were freshly prepared before administration.

[3] = tested on: HepG2, MIA PACA II, MDA-MB-231 and PC3 cells; assay: Cell viability on panel of 4 malignant cell lines; assay type: cell-based; conditions: Homo sapiens, MDA-MB-231, PC3, read-out: IC50 values, range over the malignant cell lines
Method: Determinations were made in duplicates or triplicates.
Cell viability was determined from the expression:
Human hepatocellular carcinoma HepG2 and human pancreatic cancer MIA PACA II cells were obtained from ATCC (Rockville, Md.). They were grown in DMEM (high glucose, Invitrogen) supplemented with 10% FBS, 50 μg/mL penicillin and 50 μg/mL streptomycin, 37° C., 5% CO2 until they reached 80-90% confluency, after which they were subcultured. Passage numbers were kept within 7-14 passages for both cell types.

PC3 cells [4] = assay: In vitro scratch assay (cell migration); assay type: cell-based, human; conditions: PC3, 24 h
Method: PC3 cells were seeded at 100 000 cells per well in a 6-well plate in media (DMEM, high glucose, 10% FBS, 50 μg/mL penicillin, 50 μg/mL streptomycin) and incubated (37° C., 5% CO2) for 36 hours until confluent. The cell monolayer was scraped in a straight line with a 1 mL pipette tip to create a “scratch” which was also marked at the bottom of the plate with a marker pen. The media was removed from the well which was then washed with PBS. Test compound in 2 mL DMEM (high glucose, 5% FBS) was added to each well (DMSO concentration of 0.05% v/v per well) and the plates were incubated at 37° C., 5% CO2. Control wells with PC3 monolayers were similarly treated. Scratches of approximately the same size were made on control and treated wells. Photographs of the scratched surfaces in wells were taken with a microscope fitted with a camera at the start of incubation and after 24 h. Magnification was kept constant at 40× for all acquired images. These were further analyzed by downloading the images into a Powerpoint® file and measuring (on-screen) the distances between one side of the scratch and the other. For each “scratch”, four or five distances were measured across the length of the scratch in the initial (0 h) image and these same distances were monitored after 24 h. Each compound was tested at 3 concentrations with 3 repeats made for each concentration.

Icmt = Icmt (Homo sapiens, UniProt O60725); conditions: background, cited from earlier work
Chain of Icmt (O60725 whole entry, species assumed): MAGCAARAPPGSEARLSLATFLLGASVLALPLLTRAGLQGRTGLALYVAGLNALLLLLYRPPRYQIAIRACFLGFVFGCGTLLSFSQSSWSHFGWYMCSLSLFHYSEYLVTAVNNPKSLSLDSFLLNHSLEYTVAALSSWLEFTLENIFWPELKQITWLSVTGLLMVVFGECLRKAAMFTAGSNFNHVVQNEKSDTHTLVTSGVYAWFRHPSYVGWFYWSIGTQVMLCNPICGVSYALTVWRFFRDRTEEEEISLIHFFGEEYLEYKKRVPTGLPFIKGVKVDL

[5] = female, Balb/c, mouse, in vivo, ip, 24 h

Structure (SMILES) | metabolites found [1] | LC3 aggregation (immunofluorescence) (PC3 cells [2]) | tolerability (Balb/c mice; [5]) | apparent maximal tolerated dose (Balb/c mice; mice, IP) [mg/kg] | IC50 [3] [µM] | gap closure in scratch assay (PC3 cells [4]) | maximal tolerated dose (Balb/c mice; [5]) | tolerability (Balb/c mice; mouse, in vivo, ip) | Ki (Icmt; read-out: Ki of initial reversible complex with the enzyme) [µM] | Ki (Icmt; time dependent inhibition, read-out: overall dissociation constant of EI* complex) [µM]
CCCCCCCCn1cc(CN(CC)CC)c2cc(-c3cnc(N)nc3)ccc21 [Compound 8-12, 5-(3-Diethylaminomethyl-1-octyl-1H-indol-5-yl)-pyrimidin-2-ylamine] | four metabolites were proposed | punctate LC3-positive (red) vacuoles were observed at 2.5 and 5 μM | well tolerated at 10, 20 and 50 mg/kg | 100 | 1.6 to 2.6 | the gap remained “open” at 2 and 2.5 μM but closed to some extent at a lower concentration of 1.5 μM | – | – | – | –
CCCCCCCCn1cc(CC(N)=O)c2cc(-c3cccc(C)c3)ccc21 [Cysmethynil, 2-[5-(3-methylphenyl)-1-octyl-1H-indolo-3-yl]acetamide, reference compound] | 4 mono-oxygenated/hydroxylated metabolites (A-D) | – | – | – | – | the gap closed to some degree in the presence of 17.5 and 20 μM cysmethynil after 24 h, but remained open in cells treated with 22.5 μM cysmethynil | exceeded 100 kg/kg | well tolerated at all doses | 2.39 | 0.11
